Laboratory results taken from ChEMBL document CHEMBL1201862, “PubChem BioAssay data set” (2004).
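In this assay, cells in 96-well plates receive the compound at five concentrations for 48 hours. Endpoints are linearly interpolated between the surrounding concentrations. At the GI50, growth is halved.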 Calls of active or inactive are those of the source. Cut-off read from the data, not from the text of the source: active = GI50 up to about 1.1 µM and inactive = higher.

Assays:
Experiment in all cases: NCI anticancer screen, dose series, 48 h
HCT-15 = test system: HCT-15
U-251 = test system: U-251
SNB-19 = test system: SNB-19
CCRF-CEM = test system: CCRF-CEM
LOX IMVI = test system: LOX IMVI
SK-MEL-5 = test system: SK-MEL-5
M14 = test system: M14
PC-3 = test system: PC-3
HOP-62 = test system: HOP-62
SF-295 = test system: SF-295
SK-MEL-2 = test system: SK-MEL-2
OVCAR-5 = test system: OVCAR-5
A549 = test system: A549
OVCAR-4 = test system: OVCAR-4
OVCAR-3 = test system: OVCAR-3
Hs-578T = test system: Hs-578T
KM12 = test system: KM12
UACC-62 = test system: UACC-62
K562 = test system: K562
HCC 2998 = test system: HCC 2998

| SMILES | GI50 (HCT-15) | GI50 (U-251) | GI50 (SNB-19) | GI50 (CCRF-CEM) | GI50 (LOX IMVI) | GI50 (SK-MEL-5) | GI50 (M14) | GI50 (PC-3) | GI50 (HOP-62) | GI50 (SF-295) | GI50 (SK-MEL-2) | GI50 (OVCAR-5) | GI50 (A549) | GI50 (OVCAR-4) | GI50 (OVCAR-3) | GI50 (Hs-578T) | GI50 (KM12) | GI50 (UACC-62) | GI50 (K562) | GI50 (HCC 2998) |
| --- | --- | --- | --- | --- | --- | --- | --- | --- | --- | --- | --- | --- | --- | --- | --- | --- | --- | --- | --- | --- |
| O=C1c2cccnc2-c2nccc3c2c1nc1ccccc13 [ASCIDIDEMIN] | 0.037 µM | 0.0845 µM (active) | 0.281 µM (active) | 0.501 µM (active) | 0.0512 µM (active) | 0.0583 µM (active) | 0.0466 µM (active) | 0.188 µM (active) | 0.097 µM (active) | 0.0798 µM (active) | 0.184 µM (active) | 0.475 µM (active) | 0.255 µM (active) | 1.03 µM (active) | 0.0318 µM (active) | 0.637 µM (active) | 0.183 µM (active) | 0.224 µM (active) | 0.166 µM (active) |  |
| Cc1cc(N(CCC#N)CCC#N)ccc1C(/N=N/c1ccc(Cl)cc1)=N\NC(=O)c1ccccc1 | 16 µM | 40.7 µM (inactive) | 41.9 µM (inactive) | 31.5 µM (inactive) |  | 22 µM (inactive) | 80.5 µM (inactive) | 32.5 µM (inactive) | 59.6 µM (inactive) | 9.23 µM (inactive) | 84.1 µM (inactive) | > 100 µM (inactive) | 42.7 µM (inactive) | 47.8 µM (inactive) | 42.1 µM (inactive) | 17 µM (inactive) | 20.2 µM (inactive) | 29.8 µM (inactive) | 14.9 µM (inactive) | 31 µM (inactive) |
| COc1cc2ccccc2c2cc([N+](=O)[O-])oc12 | 1.03 µM | 1.17 µM (inactive) | 0.811 µM (active) | 0.26 µM (active) | 0.314 µM (active) | 0.0948 µM (active) | 0.142 µM (active) | 3.04 µM (inactive) | 3.37 µM (inactive) | 1.39 µM (inactive) | 0.197 µM (active) | 3.39 µM (inactive) | 0.294 µM (active) | 3.48 µM (inactive) | 1.43 µM (inactive) | 2.28 µM (inactive) | 1.43 µM (inactive) | 0.809 µM (active) | 0.319 µM (active) |  |
| Cc1nc2ccccc2n1Cc1nnc2n1N=C(c1ccccc1)CS2 | 54.8 µM | 25.1 µM (inactive) | 32.1 µM (inactive) | 27.9 µM (inactive) |  | 29.2 µM (inactive) | 32.8 µM (inactive) | 16.7 µM (inactive) | 47.3 µM (inactive) | 43.1 µM (inactive) | 17 µM (inactive) | 53.3 µM (inactive) | 36.2 µM (inactive) | 45.1 µM (inactive) | 35.2 µM (inactive) | 38.5 µM (inactive) | 31.2 µM (inactive) | 23.9 µM (inactive) |  | 21.4 µM (inactive) |
| CN1C(C)(C)CC(=O)C(Br)C1(C)C (stereo unspecified) | > 100 µM | > 100 µM (inactive) | > 100 µM (inactive) | > 100 µM (inactive) | > 100 µM (inactive) | > 100 µM (inactive) | > 100 µM (inactive) | > 100 µM (inactive) | > 100 µM (inactive) | > 100 µM (inactive) | > 100 µM (inactive) | > 100 µM (inactive) | > 100 µM (inactive) | > 100 µM (inactive) | > 100 µM (inactive) | > 100 µM (inactive) | > 100 µM (inactive) | > 100 µM (inactive) | > 100 µM (inactive) |  |
| COc1cc2c(cc1OC)C1C(O)C(OC)C(Br)C3(Br)CCN(C2)C13 (stereo unspecified) | > 100 µM | 47.1 µM (inactive) | 46.2 µM (inactive) | > 100 µM (inactive) |  | > 100 µM (inactive) | > 100 µM (inactive) | > 100 µM (inactive) | > 100 µM (inactive) | > 100 µM (inactive) | > 100 µM (inactive) | > 100 µM (inactive) | > 100 µM (inactive) | > 100 µM (inactive) | > 100 µM (inactive) | > 100 µM (inactive) | 94.8 µM (inactive) | > 100 µM (inactive) |  | 70.3 µM (inactive) |
| C=C1C(=O)O[C@H]2C/C(C=O)=C\[C@H]3O[C@H]3/C(COC(=O)C(C)C)=C/CC12 (stereo partly specified) | 3.3 µM | 7.26 µM (inactive) | 15.8 µM (inactive) | 1.83 µM (inactive) | 3.21 µM (inactive) | 9.42 µM (inactive) |  | 1.85 µM (inactive) | 13.6 µM (inactive) | 25.6 µM (inactive) |  | 2.01 µM (inactive) | 16.9 µM (inactive) |  | 6.49 µM (inactive) | 2.89 µM (inactive) | 5.46 µM (inactive) | 2.2 µM (inactive) | 2.9 µM (inactive) | 13.4 µM (inactive) |
| C=C1C(=O)O[C@H]2C1C[C@H](O)[C@@]1(C)OC1CC[C@@]1(C)O[C@H]21 (stereo partly specified) | 18.7 µM | > 100 µM (inactive) |  | 2.61 µM (inactive) |  | 20.4 µM (inactive) | 15.5 µM (inactive) | 17.8 µM (inactive) | 27.6 µM (inactive) | > 100 µM (inactive) | 26.5 µM (inactive) | 16.9 µM (inactive) | > 100 µM (inactive) | 13.6 µM (inactive) |  | 37.3 µM (inactive) | 25.1 µM (inactive) | 14.6 µM (inactive) | 4.28 µM (inactive) | 14.7 µM (inactive) |
| O=C1OC[C@@H]2Cc3c([nH]c4ccccc34)[C@@H](c3cc(O)c(O)c(O)c3)N12 | 31 µM | 25.3 µM (inactive) | 24 µM (inactive) | 12.6 µM (inactive) |  | 8.39 µM (inactive) | 15.2 µM (inactive) | 31.3 µM (inactive) | 21.4 µM (inactive) | 2.57 µM (inactive) | 3.14 µM (inactive) | 19.7 µM (inactive) | > 100 µM (inactive) | 12.9 µM (inactive) |  | 15.7 µM (inactive) | 44.5 µM (inactive) | 8.93 µM (inactive) | 3.91 µM (inactive) | 48.1 µM (inactive) |
| Cn1c2ccc(C3=NCCN3)cc2c2cc(C3=NCCN3)ccc21 | > 100 µM | 14.9 µM (inactive) | 42.8 µM (inactive) | < 0.01 µM (active) | 49.4 µM (inactive) | 31.3 µM (inactive) | 48.6 µM (inactive) | 34.3 µM (inactive) | 15.3 µM (inactive) | 42.8 µM (inactive) | 33.5 µM (inactive) | 38.4 µM (inactive) | 46.1 µM (inactive) | 13.6 µM (inactive) | 42 µM (inactive) | 10.7 µM (inactive) | 1.56 µM (inactive) |  | 26.4 µM (inactive) |  |
| COc1cc(/C=C(\C#N)c2nc3ccccc3o2)ccc1O | 16.4 µM | 12.3 µM (inactive) | 32.4 µM (inactive) | 26.3 µM (inactive) |  | 12.6 µM (inactive) | 13.6 µM (inactive) | 21.2 µM (inactive) | 21 µM (inactive) | 17.6 µM (inactive) | 18 µM (inactive) | 22 µM (inactive) | 17.8 µM (inactive) | 11.2 µM (inactive) | 14 µM (inactive) | 23.1 µM (inactive) | 17.6 µM (inactive) | 18.6 µM (inactive) | 35.4 µM (inactive) | 20.9 µM (inactive) |
